Test results taken from ChEMBL document CHEMBL1201862, “PubChem BioAssay data set” (2004).
Calls of active or inactive are those of the source.

How the values were obtained:
HEK293 = assay: cytotoxicity in HEK293T NF-kB-Luc cells, SAR follow-up, cytotoxicity control for NF-kB activator project, cell-based, resazurin fluorescence (AID 493251); assay type: functional; settings: Homo sapiens
[1] = cytotoxicity in HEK-293T cells, dose response, cytotoxicity control for BCR NF-kB inhibitor project, luminescence, B-cell screen hits (AID 489021); assay type: functional, cell-based;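 further: HEK-293T cells carrying an NF-kB luciferase reporter; cells exposed to compound for about 14 hours before viability readout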
[2] = target: Tyrosyl-DNA phosphodiesterase 2 (Homo sapiens, UniProt O95551); assay: human TDP2 enzyme inhibitors, dose response, biochemical, epi absorbance, IC50 (AID 743297)
CHO = assay: cytotoxicity in TLR9-MyD88 CHO cells, dose response, cytotoxicity control for TLR9-MyD88 binding inhibitor project, cell-based, luminescence (AID 588339); assay type: functional, hamster; settings: Cricetulus griseus;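 further: CHO cells stably coexpressing TLR9 and MyD88 fusions from primary screen; compound exposure lasted 48 hours before viability readout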
[3] = target: Dual specificity tyrosine-phosphorylation-regulated kinase 1A (Rattus norvegicus, UniProt Q63470); assay type: biochemical, Homo sapiens
[4] = target: Dual specificity protein kinase CLK1 (Homo sapiens, UniProt P49759); assay: CLK1 kinase inhibitors, off-target check, dose response, selectivity assay for Dyrk1A inhibitor project, biochemical, cherry-picked samples (AID 588811)
[5] = target: Induced myeloid leukemia cell differentiation protein Mcl-1 (Homo sapiens, UniProt Q07820); assay type: functional
[6] = target: Voltage-gated inwardly rectifying potassium channel KCNH2 (Homo sapiens, UniProt Q12809); settings: Potency;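 further: confirmatory quantitative high-throughput screen measuring inhibition of hERG channel activity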
Cytochrome P450 2D6 = Cytochrome P450 2D6 (Homo sapiens, UniProt P10635);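 further: CYP2D6 member of a cytochrome P450 panel assay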
Cytochrome P450 3A4 = Cytochrome P450 3A4 (Homo sapiens, UniProt P08684);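 further: CYP3A4 tested as one member of a cytochrome P450 panel screen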
[7] = target: Short transient receptor potential channel 6 (Mus musculus, UniProt Q61143); assay: TRPC6 inhibition potency of TRPC4 inhibitor analogs, dose response, selectivity assay for selective TRPC4 inhibitor project, HEK293 cells, membrane potential dye, IC50 (AID 492987); assay type: functional, cell-based
[8] = target: T1, Ubiquitin-conjugating enzyme E2 N (Homo sapiens, UniProt P61088); assay type: functional;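 further: Dose-response confirmation in a TR-FRET assay detecting UBC13-driven polyubiquitin chain formation, inhibition measured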
T1 sequence (P61088 whole entry): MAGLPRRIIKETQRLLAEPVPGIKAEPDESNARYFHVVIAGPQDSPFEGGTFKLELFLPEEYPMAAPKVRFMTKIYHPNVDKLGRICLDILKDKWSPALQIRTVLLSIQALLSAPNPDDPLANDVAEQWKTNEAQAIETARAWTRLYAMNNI

[9] = NIH-3T3 fibroblast cytotoxicity, dose response, cytotoxicity control, cell-based, fluorescence, Alamar Blue, secondary assay (AID 2327); assay type: functional;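 further: NIH-3T3 mouse fibroblasts cultured with fluconazole at 8 µg/mL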
[10] = control 3'UTR Renilla luciferase suppression, dose response, counter-screen for Shn3 inhibitor project, cell-based, Clone20-Shn3RL, cherry-picked (AID 624133); assay type: functional
Phospholipase A2 = Phospholipase A2 (Homo sapiens, UniProt P04054); assay type: functional;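 further: confirmatory dose-response counterscreen on phospholipase A2, testing hits that came from an ultra-high-throughput screen for ATG4B inhibitors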
[11] = C. albicans growth with fluconazole, confirmation, fluorescence, retest (AID 2467); assay type: functional, cell-based
Cysteine protease ATG4B = Cysteine protease ATG4B (Homo sapiens, UniProt Q9Y4P1); assay type: functional;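 further: Fluorescence-based dose-response confirmation assay measuring inhibition of ATG4B activity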
[12] = HepG2 cell cytotoxicity, dose response, cytotoxicity control for Shn3 inhibitor project, CellTiter-Glo, cherry-picked (AID 624134); assay type: functional, cell-based
[13] = Shn3 3'UTR reporter inhibitors, dose response, cell-based, Clone20 osteoblasts, firefly luciferase, cherry-picked (AID 624132); assay type: functional;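 further: firefly luciferase luminescence from reporter carrying the Shn3 3'UTR in osteoblasts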
[14] = Luminescence Cell-Based Dose Response HTS to Identify Inhibitors of 5'UTR Stem-Loop Driven Prion Protein mRNA Translation in H4 Neuroglioblastoma Cells. [Related pubchem assays: 1827 (Project Summary), 1813 (Primary HTS)]; assay type: functional
Hexokinase-1 = target: T2, Hexokinase-1 (Homo sapiens, UniProt P19367); assay: HK1 enzyme inhibition by HKDC1 hits, SAR follow-up, selectivity assay for HKDC1 inhibitor project, biochemical, set 2, resazurin fluorescence coupled readout (AID 588356); assay type: functional
T2 sequence (P19367 whole entry): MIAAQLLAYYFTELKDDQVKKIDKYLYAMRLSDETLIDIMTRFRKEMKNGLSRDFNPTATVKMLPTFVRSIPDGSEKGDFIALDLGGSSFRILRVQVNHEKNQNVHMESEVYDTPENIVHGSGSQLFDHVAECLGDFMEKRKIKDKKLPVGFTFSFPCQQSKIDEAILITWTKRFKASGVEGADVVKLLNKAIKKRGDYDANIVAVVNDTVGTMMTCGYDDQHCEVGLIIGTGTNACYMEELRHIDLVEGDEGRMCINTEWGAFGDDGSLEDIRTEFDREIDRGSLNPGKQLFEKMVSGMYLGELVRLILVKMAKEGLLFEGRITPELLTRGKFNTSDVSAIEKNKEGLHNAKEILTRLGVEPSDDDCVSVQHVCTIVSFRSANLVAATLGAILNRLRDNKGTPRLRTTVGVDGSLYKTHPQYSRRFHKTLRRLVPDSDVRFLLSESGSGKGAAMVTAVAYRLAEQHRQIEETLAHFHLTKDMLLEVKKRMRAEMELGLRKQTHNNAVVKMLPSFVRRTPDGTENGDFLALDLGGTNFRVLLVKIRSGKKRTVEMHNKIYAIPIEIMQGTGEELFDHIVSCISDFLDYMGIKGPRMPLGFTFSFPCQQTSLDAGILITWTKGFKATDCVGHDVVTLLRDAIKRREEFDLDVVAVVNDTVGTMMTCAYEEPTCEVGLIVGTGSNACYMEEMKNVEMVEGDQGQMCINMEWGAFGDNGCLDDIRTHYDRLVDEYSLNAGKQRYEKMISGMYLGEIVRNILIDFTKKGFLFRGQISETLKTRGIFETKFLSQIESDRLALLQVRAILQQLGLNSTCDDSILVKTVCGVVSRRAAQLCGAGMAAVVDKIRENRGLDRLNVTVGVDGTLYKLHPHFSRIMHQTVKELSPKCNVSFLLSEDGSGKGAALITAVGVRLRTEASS

[15] = Luminescence Cell-Based Dose Confirmation HTS to Identify Inhibitors of Platelet Dense Granule Release. [Related pubchem assays: 1663 (Primary HTS), 1678 (Summary of Project)]; assay type: functional
[16] = inhibitors of firefly luciferase expression or activity, dose response, H4 neuroglioma cells, luminescence (AID 1990); assay type: functional, cell-based
Hexokinase HKDC1 = target: T3, Hexokinase HKDC1 (Homo sapiens, UniProt Q2TB90); assay: HKDC1 hexokinase inhibitors, SAR follow-up, biochemical, set 2 (AID 588355); assay type: functional
T3 sequence (Q2TB90 whole entry): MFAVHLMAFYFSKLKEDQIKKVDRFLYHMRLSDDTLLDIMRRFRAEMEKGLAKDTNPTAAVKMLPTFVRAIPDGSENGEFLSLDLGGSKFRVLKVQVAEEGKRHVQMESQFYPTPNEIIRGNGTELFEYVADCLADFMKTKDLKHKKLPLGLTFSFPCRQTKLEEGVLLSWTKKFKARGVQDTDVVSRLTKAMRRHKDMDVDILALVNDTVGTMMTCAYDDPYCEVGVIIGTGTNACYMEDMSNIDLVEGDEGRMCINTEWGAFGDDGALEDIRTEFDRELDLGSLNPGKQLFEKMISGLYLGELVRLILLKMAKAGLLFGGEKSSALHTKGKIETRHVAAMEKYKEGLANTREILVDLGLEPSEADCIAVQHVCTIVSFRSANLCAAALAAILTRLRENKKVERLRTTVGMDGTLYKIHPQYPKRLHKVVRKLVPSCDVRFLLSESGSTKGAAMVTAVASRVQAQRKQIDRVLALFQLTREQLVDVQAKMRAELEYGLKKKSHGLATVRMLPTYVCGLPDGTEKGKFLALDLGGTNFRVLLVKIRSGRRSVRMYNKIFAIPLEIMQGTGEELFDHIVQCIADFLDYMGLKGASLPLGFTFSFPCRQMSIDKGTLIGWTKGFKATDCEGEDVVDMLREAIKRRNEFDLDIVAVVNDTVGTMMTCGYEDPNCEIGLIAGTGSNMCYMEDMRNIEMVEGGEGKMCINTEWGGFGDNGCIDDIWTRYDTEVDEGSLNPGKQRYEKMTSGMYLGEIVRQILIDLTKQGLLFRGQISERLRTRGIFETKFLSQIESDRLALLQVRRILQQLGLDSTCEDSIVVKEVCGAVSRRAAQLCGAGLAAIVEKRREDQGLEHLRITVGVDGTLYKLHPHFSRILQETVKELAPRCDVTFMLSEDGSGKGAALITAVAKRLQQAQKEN

[17] = target: Luciferin 4-monooxygenase (Photinus pyralis, UniProt P08659); assay: firefly luciferase enzyme inhibitors, dose response, biochemical, luminescence (AID 1891)
[18] = target: T4, Microphthalmia-associated transcription factor (Homo sapiens, UniProt O75030); assay: TRPM1 promoter luciferase signal decrease, dose response, MITF inhibitor project, cell-based, SK-MEL-5, cherry-picked, set 3 (AID 493073); assay type: functional
T4 sequence (O75030 whole entry): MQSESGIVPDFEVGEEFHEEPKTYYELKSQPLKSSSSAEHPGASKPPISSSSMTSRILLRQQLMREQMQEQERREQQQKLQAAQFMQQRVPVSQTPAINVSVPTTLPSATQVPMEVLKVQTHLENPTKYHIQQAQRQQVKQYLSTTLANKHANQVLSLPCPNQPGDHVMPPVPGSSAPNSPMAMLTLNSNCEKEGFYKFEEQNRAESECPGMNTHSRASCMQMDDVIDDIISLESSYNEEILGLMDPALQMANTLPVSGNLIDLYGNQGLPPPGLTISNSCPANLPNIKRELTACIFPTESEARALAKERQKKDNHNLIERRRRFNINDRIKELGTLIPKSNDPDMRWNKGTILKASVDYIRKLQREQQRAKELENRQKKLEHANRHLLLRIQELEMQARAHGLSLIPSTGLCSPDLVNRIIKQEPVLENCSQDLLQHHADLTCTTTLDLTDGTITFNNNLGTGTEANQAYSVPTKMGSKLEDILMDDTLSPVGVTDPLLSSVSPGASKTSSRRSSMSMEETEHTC

A-375 = assay: A375 melanoma cell viability reduction, dose response, counter-screen for MITF modulator project, cherry-pick samples, set 2 (AID 540335); assay type: functional, cell-based; settings: Homo sapiens
INS1 = assay: beta cell apoptosis inhibitors, cytokine rescue, dose response, luminescence, retest (AID 449756); assay type: functional, cell-based; settings: Rattus norvegicus;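 further: cell death triggered by IL-1 beta plus TNF-alpha plus IFN-gamma mixture; protective hits raise ATP signal compared with cytokine alone wells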
[19] = target: T5, Heat shock factor protein 1 (Mus musculus, UniProt P38532); assay: inhibition of MG132-induced HSE-luciferase signal, confirmation, cell-based, NIH3T3, luminescence, dose retest (AID 2382); assay type: functional;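 further: NIH3T3 fibroblasts with HSF1-driven luciferase reporter stressed by proteasome inhibitor MG132; luminescence from HSF1-driven luciferase expression after 8 hours of MG132 stress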
T5 sequence (P38532 whole entry): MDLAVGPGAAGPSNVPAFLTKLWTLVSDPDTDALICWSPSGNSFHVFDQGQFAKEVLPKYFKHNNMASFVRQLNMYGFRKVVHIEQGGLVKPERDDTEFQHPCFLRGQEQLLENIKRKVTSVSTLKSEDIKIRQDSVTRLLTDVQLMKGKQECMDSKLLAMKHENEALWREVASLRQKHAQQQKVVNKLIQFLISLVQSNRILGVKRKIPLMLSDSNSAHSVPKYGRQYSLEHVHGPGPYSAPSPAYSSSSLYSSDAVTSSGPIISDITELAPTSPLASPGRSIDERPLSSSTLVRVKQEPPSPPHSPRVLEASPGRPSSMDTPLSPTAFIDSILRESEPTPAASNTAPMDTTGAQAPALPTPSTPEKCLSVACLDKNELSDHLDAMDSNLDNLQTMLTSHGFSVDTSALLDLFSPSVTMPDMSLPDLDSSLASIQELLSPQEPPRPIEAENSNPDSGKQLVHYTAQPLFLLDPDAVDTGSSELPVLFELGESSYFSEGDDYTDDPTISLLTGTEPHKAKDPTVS

Paired box protein Pax-8 = Paired box protein Pax-8 (Homo sapiens, UniProt Q06710); assay: inhibitors of PAX8-driven TPO luciferase reporter, dose response, RMG-I cells, cherry-pick (AID 687027); assay type: functional, cell-based;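 further: luciferase reporter driven by Pax8 target thyroperoxidase promoter measured by SteadyGlo luminescence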
[20] = non-specific cell cytotoxicity, dose response, cytotoxicity control for PAX8 inhibitor project, plate reader, dry powder samples (AID 743021); assay type: functional, cell-based

Sequence of Voltage-gated inwardly rectifying potassium channel KCNH2 (Q12809 whole entry): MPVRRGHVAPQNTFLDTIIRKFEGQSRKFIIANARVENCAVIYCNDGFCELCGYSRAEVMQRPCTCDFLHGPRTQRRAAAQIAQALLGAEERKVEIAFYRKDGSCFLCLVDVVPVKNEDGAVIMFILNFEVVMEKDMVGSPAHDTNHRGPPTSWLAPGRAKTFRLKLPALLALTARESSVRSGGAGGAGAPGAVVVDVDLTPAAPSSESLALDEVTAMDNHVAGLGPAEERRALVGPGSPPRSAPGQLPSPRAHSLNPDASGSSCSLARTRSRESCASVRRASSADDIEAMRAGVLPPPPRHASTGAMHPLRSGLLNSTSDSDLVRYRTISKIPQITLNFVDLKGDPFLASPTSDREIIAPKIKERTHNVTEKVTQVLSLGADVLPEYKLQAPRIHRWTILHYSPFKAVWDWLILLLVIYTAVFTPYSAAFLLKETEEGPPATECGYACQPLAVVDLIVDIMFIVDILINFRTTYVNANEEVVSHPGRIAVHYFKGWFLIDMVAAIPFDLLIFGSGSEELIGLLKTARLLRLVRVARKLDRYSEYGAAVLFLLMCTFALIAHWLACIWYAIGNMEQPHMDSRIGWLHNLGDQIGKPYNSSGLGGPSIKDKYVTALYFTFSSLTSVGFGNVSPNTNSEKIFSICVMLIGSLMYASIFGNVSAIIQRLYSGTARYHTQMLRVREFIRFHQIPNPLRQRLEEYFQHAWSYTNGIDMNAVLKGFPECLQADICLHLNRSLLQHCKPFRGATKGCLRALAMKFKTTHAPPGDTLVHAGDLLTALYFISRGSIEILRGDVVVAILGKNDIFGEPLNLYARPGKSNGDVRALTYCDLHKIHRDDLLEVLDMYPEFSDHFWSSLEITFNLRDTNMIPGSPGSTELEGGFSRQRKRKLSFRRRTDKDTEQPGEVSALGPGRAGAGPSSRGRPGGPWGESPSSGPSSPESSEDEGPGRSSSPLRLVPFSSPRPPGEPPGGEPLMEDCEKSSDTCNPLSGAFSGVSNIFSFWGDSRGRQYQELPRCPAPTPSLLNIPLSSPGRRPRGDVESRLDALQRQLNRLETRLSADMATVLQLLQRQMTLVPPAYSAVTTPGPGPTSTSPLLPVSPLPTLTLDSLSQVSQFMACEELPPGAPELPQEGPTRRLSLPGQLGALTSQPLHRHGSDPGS
Sequence of Induced myeloid leukemia cell differentiation protein Mcl-1 (Q07820 whole entry): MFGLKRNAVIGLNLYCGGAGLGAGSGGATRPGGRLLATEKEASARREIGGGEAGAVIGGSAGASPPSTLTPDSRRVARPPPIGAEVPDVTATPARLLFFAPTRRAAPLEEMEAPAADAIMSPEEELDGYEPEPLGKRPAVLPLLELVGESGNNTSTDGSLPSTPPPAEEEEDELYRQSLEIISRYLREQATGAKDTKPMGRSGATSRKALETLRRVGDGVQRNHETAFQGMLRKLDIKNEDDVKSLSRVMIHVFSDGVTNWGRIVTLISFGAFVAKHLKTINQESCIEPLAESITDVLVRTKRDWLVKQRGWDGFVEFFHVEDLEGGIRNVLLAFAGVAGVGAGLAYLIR
Sequence of Cytochrome P450 3A4 (P08684 whole entry): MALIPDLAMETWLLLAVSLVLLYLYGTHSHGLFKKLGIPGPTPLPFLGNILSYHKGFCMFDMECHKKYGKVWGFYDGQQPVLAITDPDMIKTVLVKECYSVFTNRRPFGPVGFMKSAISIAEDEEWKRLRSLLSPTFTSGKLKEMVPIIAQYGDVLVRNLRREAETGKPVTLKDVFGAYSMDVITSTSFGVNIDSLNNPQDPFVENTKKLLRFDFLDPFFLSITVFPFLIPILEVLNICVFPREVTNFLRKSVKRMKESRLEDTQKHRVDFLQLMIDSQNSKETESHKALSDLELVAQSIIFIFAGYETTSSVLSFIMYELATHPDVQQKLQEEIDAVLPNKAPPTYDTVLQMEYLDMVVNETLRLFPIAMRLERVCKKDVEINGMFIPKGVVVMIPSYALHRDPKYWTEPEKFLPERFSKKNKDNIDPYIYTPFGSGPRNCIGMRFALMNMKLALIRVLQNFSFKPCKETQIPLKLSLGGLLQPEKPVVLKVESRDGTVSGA
Sequence of Cysteine protease ATG4B (Q9Y4P1 whole entry): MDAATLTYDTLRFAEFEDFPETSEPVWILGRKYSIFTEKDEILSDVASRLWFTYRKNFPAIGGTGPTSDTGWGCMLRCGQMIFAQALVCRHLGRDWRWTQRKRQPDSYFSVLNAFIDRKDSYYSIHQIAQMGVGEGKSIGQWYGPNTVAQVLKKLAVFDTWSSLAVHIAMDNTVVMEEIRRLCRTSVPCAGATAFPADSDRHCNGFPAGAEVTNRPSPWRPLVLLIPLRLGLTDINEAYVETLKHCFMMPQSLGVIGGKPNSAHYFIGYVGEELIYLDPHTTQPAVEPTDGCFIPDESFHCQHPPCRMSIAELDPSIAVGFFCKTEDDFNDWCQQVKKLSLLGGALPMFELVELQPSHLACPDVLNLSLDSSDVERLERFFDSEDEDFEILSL
Sequence of Tyrosyl-DNA phosphodiesterase 2 (O95551 whole entry, the tested form may be a part): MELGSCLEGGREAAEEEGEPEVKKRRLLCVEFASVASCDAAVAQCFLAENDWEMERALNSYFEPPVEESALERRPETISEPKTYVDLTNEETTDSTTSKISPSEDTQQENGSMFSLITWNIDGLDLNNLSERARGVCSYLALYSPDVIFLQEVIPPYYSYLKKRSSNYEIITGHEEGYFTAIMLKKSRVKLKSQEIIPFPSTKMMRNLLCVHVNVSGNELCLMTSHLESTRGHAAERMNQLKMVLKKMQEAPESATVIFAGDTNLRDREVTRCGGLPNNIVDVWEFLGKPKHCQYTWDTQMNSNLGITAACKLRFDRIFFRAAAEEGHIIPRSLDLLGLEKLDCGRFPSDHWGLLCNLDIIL
Sequence of Luciferin 4-monooxygenase (P08659 whole entry): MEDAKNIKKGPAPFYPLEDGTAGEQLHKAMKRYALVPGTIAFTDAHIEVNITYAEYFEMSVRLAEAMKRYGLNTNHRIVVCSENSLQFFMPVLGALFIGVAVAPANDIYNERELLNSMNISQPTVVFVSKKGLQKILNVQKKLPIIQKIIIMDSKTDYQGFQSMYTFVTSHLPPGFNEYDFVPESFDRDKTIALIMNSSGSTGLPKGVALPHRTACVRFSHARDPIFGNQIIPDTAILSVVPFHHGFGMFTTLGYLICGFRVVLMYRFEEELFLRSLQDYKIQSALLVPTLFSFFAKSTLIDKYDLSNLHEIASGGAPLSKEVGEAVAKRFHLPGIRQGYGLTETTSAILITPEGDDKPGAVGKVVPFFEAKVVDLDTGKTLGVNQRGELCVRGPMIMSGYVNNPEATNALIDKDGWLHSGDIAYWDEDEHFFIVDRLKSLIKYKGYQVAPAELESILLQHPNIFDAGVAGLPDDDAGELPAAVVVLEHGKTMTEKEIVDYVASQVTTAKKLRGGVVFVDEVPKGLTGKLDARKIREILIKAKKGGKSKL
Sequence of Phospholipase A2 (P04054 whole entry): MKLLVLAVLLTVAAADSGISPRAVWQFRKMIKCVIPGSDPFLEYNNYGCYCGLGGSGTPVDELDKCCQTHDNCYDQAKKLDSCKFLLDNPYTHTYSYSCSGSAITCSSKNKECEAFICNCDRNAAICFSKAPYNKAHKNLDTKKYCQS
Sequence of Short transient receptor potential channel 6 (Q61143 whole entry): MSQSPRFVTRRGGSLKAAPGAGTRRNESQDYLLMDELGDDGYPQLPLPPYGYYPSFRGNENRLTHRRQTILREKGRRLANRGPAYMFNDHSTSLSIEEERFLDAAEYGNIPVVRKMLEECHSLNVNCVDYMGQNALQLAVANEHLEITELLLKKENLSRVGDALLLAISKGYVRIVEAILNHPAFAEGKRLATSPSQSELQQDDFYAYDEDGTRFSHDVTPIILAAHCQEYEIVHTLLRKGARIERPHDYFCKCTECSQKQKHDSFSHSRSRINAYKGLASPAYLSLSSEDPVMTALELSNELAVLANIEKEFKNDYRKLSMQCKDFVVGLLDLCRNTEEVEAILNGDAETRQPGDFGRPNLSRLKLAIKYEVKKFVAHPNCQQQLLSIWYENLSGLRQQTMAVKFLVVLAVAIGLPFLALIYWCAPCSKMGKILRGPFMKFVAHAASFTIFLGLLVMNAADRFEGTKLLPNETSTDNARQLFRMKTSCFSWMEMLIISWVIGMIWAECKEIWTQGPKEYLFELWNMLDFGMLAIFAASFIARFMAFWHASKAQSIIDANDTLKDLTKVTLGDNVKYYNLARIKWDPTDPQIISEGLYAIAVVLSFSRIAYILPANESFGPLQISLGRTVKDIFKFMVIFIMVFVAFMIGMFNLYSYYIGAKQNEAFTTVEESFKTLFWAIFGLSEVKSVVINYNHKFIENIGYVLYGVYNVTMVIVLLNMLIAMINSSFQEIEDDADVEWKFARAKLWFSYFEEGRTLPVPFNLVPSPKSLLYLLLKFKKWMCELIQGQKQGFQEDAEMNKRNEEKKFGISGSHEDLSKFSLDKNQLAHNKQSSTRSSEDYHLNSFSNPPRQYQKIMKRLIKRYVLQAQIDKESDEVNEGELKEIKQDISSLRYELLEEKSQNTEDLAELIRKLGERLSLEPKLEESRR
Sequence of Dual specificity protein kinase CLK1 (P49759 whole entry): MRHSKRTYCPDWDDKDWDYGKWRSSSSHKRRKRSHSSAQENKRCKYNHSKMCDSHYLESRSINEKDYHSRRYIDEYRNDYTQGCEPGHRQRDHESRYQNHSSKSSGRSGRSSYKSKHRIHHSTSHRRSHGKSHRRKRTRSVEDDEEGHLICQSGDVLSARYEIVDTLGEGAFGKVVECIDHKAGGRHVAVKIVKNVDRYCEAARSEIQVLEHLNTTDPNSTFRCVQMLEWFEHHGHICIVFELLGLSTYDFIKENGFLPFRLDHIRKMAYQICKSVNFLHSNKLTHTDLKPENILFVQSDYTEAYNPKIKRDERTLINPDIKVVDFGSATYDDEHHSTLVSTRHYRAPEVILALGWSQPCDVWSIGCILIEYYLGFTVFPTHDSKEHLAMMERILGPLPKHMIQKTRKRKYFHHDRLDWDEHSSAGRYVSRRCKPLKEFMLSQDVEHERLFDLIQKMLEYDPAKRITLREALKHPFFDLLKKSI

## COc1ccc(-c2nc(CSCC(=O)NCc3ccco3)c(C)o2)cc1
HEK293
  IC50: 67.1 µM (inactive)
[1]
  IC50: > 80 µM (inactive)

## N#Cc1sc2nc(-c3ccccc3)cc(-c3ccco3)c2c1N
[2]
  IC50: > 128 µM (inactive)
CHO
  IC50: 40.7 µM (inactive)

## O=C(Nc1nc(-c2ccncc2)cs1)c1ccco1
[3]
  AC50: 1.92 µM (active)
[4]
  AC50: 2.56 µM (active)
[5]
  IC50: 4.34 µM (active)

## NC(=O)CNCCC(c1ccccc1)c1ccccc1
[6]
  AC50: 15.8 µM (inconclusive)
Cytochrome P450 2D6
  AC50: 20 µM (inconclusive)
Cytochrome P450 3A4
  AC50: 2 µM (inconclusive)

## Cc1cc(N2CCNCC2)nc2ccccc12
[7]
  IC50: 20.4 µM (active)

## Cc1c(CCOC(=O)C23CC4(C)CC(C)(CC(C)(C4)C2)C3)sc[n+]1CC(=O)c1ccccc1
[8]
  IC50: > 20 µM (inactive)
[9]
  EC50: > 150 µM (inactive)
[10]
  AC50: 7.21 µM (active)
Phospholipase A2
  IC50: 8.77 µM (active)
[11]
  EC50: > 38 µM (not active)
Cysteine protease ATG4B
  IC50: 8.57 µM (active)
[12]
  AC50: 23.6 µM (active)
[13]
  AC50: 5.84 µM (active)

## COc1cc2c(cc1OC)-c1cc(Nc3ccccc3Br)nc(=O)n1CC2
[14]
  EC50: 13.4 µM (active)
Hexokinase-1
  IC50: > 80 µM (inactive)
[15]
  EC50: 0.115 µM (active)
[16]
  EC50: 26.2 µM (active)
Hexokinase HKDC1
  IC50: > 80 µM (inactive)
[17]
  EC50: > 112 µM (not active)

## O=C(CCl)N(c1ccccc1)C1CCCCC1
[18]
  AC50: 4.51 µM (active)
A-375
  AC50: 7.54 µM (active)
INS1
  AC50: 4.88 µM (active)
[19]
  EC50: 4.98 µM (active)
Paired box protein Pax-8
  AC50: 3.98 µM (active)
[20]
  AC50: 10.7 µM (active)
